Assays:
[1] = assay type: physicochemical
Description: Both SPM and SPA were analyzed by x-ray powder diffraction (XRPD), infrared (IR) spectroscopy, solid-state nuclear magnetic resonance (SSNMR) spectroscopy, differential scanning calorimetry (DSC) and thermogravimetric analysis (TGA). The XRPD patterns of SPM and SPA are quite different and distinguishable. While the IR and SSNMR spectra of SPM and SPA are different, the differences are subtle. SPM and SPA behave quite differently on both DSC and TGA thermal analyses. SPA undergoes endothermic transitions at 364° C. and 409° C. that are accompanied by a weight loss of 72%.

[2] = Solid form interconversion under tableting pressure (XRPD); assay type: physicochemical; conditions: XRPD of crushed tablets
Description: (§1) Dissolutions were carried out in a standard Van-Kel dissolution bath. The medium was either water, 90% water/10% ethanol, or 95% water/5% ethanol. For nonintrinsic dissolution experiments, SPM and SPA powders were sieved and fractions that passed through a 75 μm sieve were used. For intrinsic dissolution experiments, tablets were prepared in a standard Woods apparatus by compression of 400 mg of material at 3000 psig for 1 minute.
For intrinsic dissolution experiments, the test material is compressed into a tablet and the tablet (still in the die) is lowered into the dissolution medium. In this way, a consistent surface area, the tablet face, is presented to the medium. […] Therefore, tablets of SPM and SPA were prepared, removed from the die, crushed into powders, and examined by XRPD.

[3] = Nonintrinsic dissolution in water; assay type: physicochemical
Description: as §1
Each experiment was carried out by placing 900 mL of medium into one of the Van-Kel dissolution vessels and allowing it to equilibrate at 37° C. The test materials were added (powder or tablet) and samples were withdrawn by syringe at the specified times (see Table 4). Each sample was filtered through a 0.2μ nylon syringe filter. Three dissolution experiments were carried out for each lot of suspension.
The rates of dissolution of SPM and SPA were compared. […] These studies were conducted by slurrying sieved (<75 μm) sodium phenytoin powder in pure water and measuring the concentrations in solution at various times by HPLC. Unfortunately, solid crystallized from the solutions withdrawn for analysis as they cooled, rendering the data invalid for determination of dissolution rate. Even so, all of the samples withdrawn contained about 5 mg/mL of sodium phenytoin, including those withdrawn 5 minutes after the slurries were prepared. […] A decrease in the concentration of dissolved sodium phenytoin with time is consistent with the reported reaction of sodium phenytoin with acids, even carbonic acid formed by dissolution of atmospheric carbon dioxide in water, to give relatively water-insoluble phenytoin.
Samples were analyzed by high-performance liquid chromatography (HPLC) on a BAS 480 HPLC system equipped with a UV/VIS detector and a TSP AS 100 autosampler, and controlled with INJECT software. A Phenomenex Hypersil C18 BDS column (5μ particle size, 4.6×150 mm) was used. The mobile phase was prepared by mixing water, methanol, and acetic acid in a 60:40:0.5 volume ratio. Analyses were carried out at a flow rate of 1 mL/minute with the UV/VIS detector set at 254 nm. The injection volume was 5 μL.
A standard solution consisting of 74.8 μg/mL of sodium phenytoin in mobile phase was injected three times before and three times after each series of analyses. Each unknown sample was injected three times without dilution. The peak areas at 254 nm were recorded and averaged for each time point. The amount of sodium phenytoin in solution at each time point was calculated from the line equation of the calibration curve: […]

[4] = Drying of SPM under low pressure, XRPD of resulting solid; assay type: physicochemical; conditions: about 1 torr, ambient temperature, 24 hours
Description: Any residual dichloromethane should evaporate readily from the solid under ambient conditions. To determine if solvent evaporation could be ensured by drying under low-pressure conditions, a portion of the SPM sample was kept under about 1 torr pressure at ambient temperature for 24 hours.

## O=C1NC(=O)C(c2ccccc2)(c2ccccc2)N1 [SPM, sodium phenytoin monohydrate]
[1]
  stability and physical properties compared with sodium phenytoin anhydrate: greatly improved stability and physical properties
[2]
  solid form interconversion under pressure used to make tablets: no solid form interconversion occurred
[3]; 24 and 72 hours
  amount of sodium phenytoin at extended reaction times versus earlier samples: appeared to be less than the amount found in the earlier samples
[3]; nonintrinsic dissolution experiments
  dissolution rate in water: high enough that differences could not be determined
[3]; pure water, including 5 minutes after slurries were prepared, data invalid for dissolution rate
  sodium phenytoin in samples withdrawn: about 5 mg/mL
[3]; sieved powder (<75 μm), pure water
  dissolution in water: dissolve rapidly and extensively in water
[4]
  form change on drying under low pressure: these conditions caused dehydration

Source: patent US6245917A, “Crystalline sodium phenytoin monohydrate” (Warner-Lambert Company, priority 1999, dated 2001)
